Source: ChEMBL document CHEMBL1201862, “PubChem BioAssay data set” (2004)
Active and inactive are the calls of the source.

Tests used:
[1] = biological target: Heat shock protein HSP 90-alpha (Homo sapiens, UniProt P07900); experiment: Luminescence-based dose response biochemical high throughput screening assay for inhibitors of the Heat Shock Protein 90 (HSP90). [Related pubchem assays: 1831 (Summary AID.), 1846 (Confirmation screen.), 1789 (Primary screen.)]
Hexokinase HKDC1 = biological target: T1, Hexokinase HKDC1 (Homo sapiens, UniProt Q2TB90); experiment: inhibition of HKDC1 glucose phosphorylation – biochemical, W721R variant, dose response (AID 504729); type: functional
T1 sequence (Q2TB90 whole entry): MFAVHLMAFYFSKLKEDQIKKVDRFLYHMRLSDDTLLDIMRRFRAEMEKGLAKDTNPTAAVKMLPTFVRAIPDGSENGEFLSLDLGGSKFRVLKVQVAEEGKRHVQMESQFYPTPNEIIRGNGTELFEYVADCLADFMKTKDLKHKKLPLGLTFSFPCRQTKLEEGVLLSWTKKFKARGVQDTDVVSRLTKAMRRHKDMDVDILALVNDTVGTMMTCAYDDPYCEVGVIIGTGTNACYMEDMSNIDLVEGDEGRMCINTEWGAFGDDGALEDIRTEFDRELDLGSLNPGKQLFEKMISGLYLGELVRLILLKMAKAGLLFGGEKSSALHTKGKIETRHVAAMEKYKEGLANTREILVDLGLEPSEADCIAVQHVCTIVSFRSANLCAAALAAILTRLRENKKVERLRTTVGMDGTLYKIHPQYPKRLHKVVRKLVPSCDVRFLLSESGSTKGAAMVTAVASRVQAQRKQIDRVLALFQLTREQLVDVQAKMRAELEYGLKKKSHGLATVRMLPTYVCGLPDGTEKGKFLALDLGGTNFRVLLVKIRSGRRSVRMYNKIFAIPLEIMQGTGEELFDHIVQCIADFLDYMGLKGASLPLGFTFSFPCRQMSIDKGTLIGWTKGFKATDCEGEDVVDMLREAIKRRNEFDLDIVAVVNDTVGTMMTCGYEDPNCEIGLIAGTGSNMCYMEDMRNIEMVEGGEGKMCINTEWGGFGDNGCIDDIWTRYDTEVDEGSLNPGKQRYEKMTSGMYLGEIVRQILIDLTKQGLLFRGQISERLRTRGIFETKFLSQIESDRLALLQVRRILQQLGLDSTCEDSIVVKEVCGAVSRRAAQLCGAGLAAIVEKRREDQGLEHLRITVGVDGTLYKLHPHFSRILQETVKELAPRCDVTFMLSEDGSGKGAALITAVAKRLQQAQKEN

Protein skinhead-1 = biological target: T2, Protein skinhead-1 (Caenorhabditis elegans, UniProt P34707); type: functional
T2 sequence (P34707 whole entry): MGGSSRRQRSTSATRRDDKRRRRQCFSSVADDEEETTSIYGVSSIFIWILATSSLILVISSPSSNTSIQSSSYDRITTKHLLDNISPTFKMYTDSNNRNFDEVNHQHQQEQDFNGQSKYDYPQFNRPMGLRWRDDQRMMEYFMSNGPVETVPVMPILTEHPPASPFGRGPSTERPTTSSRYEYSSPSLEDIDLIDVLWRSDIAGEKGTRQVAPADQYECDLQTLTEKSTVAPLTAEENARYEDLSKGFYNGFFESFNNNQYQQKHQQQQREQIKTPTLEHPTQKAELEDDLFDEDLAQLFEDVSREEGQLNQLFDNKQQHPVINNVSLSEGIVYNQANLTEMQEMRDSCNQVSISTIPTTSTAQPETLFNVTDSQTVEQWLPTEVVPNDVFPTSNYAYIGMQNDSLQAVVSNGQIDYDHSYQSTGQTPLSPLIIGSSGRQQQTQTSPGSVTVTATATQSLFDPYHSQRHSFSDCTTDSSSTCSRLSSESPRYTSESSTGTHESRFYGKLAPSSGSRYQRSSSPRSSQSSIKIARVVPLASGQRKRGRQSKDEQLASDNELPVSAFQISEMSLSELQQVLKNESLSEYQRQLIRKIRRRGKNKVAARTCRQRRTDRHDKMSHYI

[2] = biological target: T3, Apoptotic protease-activating factor 1 (Homo sapiens, UniProt O14727); type: functional
T3 sequence (O14727 whole entry): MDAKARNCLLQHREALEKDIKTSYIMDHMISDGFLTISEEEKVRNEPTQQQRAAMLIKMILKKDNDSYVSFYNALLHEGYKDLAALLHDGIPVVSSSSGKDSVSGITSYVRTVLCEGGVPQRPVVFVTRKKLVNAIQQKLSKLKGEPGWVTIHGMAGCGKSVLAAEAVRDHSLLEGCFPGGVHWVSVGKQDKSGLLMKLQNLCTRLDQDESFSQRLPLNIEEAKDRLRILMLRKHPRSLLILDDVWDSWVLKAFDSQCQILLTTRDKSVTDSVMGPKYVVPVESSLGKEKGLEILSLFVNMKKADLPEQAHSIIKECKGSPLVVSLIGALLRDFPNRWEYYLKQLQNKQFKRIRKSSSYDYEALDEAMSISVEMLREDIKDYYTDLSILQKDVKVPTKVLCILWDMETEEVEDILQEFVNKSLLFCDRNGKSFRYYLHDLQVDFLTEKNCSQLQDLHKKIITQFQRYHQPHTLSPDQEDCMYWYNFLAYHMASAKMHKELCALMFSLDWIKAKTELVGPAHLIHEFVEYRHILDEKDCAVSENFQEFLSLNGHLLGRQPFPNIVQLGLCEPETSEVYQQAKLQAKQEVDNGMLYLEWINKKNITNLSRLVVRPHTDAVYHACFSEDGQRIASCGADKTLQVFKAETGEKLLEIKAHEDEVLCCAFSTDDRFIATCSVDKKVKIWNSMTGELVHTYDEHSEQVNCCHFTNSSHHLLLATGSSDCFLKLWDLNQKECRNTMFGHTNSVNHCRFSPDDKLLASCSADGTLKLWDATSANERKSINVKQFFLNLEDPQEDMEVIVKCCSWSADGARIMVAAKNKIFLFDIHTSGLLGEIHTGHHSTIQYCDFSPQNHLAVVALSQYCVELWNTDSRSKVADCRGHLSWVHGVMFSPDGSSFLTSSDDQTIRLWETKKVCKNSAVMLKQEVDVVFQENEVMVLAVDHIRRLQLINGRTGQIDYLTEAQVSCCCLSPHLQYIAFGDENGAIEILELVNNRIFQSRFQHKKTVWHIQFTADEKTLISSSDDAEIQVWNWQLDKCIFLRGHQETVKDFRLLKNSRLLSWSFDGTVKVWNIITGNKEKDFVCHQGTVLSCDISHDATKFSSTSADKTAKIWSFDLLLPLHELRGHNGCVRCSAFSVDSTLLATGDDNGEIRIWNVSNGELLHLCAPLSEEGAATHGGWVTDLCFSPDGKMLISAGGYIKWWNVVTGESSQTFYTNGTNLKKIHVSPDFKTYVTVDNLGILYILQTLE

[3] = test system: Streptococcus sp. 'group A'; experiment: Streptococcus pyogenes SK(-)GAS viability under kanamycin – luminescence, BacTiterGlo, confirmation, counter-screen for streptokinase expression inhibitor project, dose response (AID 1900); type: functional, organism-based
Streptococcus = experiment: GAS UMAA2166 growth inhibition – luminescence, BacTiterGlo, counter-screen for streptokinase expression inhibitor project, dose response (AID 1915); type: functional, organism-based;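 note: potency for reduction of bacterial viability or growth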

How did the IC50 [1] turn out when `COC(=O)C[C@]1(C(=O)OC)CN(C#N)N(c2ccc(Cl)cc2)C12c1ccccc1-c1ccccc12` was run?
The IC50 was 3.75 µM (active).

And the IC50 (Hexokinase HKDC1)?
The IC50 was 3.35 µM (active).

`O=C(Nc1ccc(C#Cc2ccccc2)cc1)C1CC1` was tested. Which IC50 (Protein skinhead-1) did it give?
Its IC50 is > 100 µM (inactive).

`CCCCn1c(NC(=O)c2ccco2)c(C(=O)OCC)c2nc3ccccc3nc21` was tested. Which IC50 [2] did it give?
Its IC50 is 13 µM (active).

For `Cc1ccccc1NC1=C/C(=N\S(=O)(=O)c2ccc(C(=O)O)cc2)c2ccccc2C1=O`, which EC50 [3] is on record?
The EC50 was 1.67 µM (active).

And the IC50 [1]?
Its IC50 is 0.522 µM (active).

What about the EC50 (Streptococcus) of the same compound?
Its EC50 is 5.01 µM (active).

And the IC50 (Hexokinase HKDC1)?
Its IC50 is 2.53 µM (active).

What about the IC50 [2] of the same compound?
The IC50 was 1.59 µM (active).

`Cc1ccc(NC2=C/C(=N/S(=O)(=O)c3cccs3)c3ccccc3C2=O)cc1` was tested. Which IC50 [2] did it give?
Its IC50 is 0.453 µM (active).

With `COc1ccc(-c2cc(-c3ccc(C)cc3)[nH]n2)c(O)c1` as the compound, how does the EC50 [3] read?
Its EC50 is 11 µM (active).

And the EC50 (Streptococcus)?
The EC50 was 15.8 µM (active).

And the IC50 (Protein skinhead-1)?
The IC50 was > 100 µM (inactive).
